From paper PMC8875489, “Pharmaceutical and Safety Profile Evaluation of Novel Selenocompounds with Noteworthy Anticancer Activity” (Pharmaceutics, 2022)

How the values were obtained:
[1] = PAMPA membrane permeability test (capillary electrophoresis); type: in vitro ADME; conditions: for Papp at 5 h, 50 µM: 50 μM in PBS pH 7.4, 5 h, room temperature, read-out: In Vitro Permeability; for % Perm. (percentage that crossed from the donor well to the acceptor well): 5 h
Procedure: The passive transport and membrane absorption of 5 selected selenocompounds (EDA-58, EDA-71, EDA-119, EDA-122, and EDA-A6) were evaluated with the in vitro parallel artificial membrane permeability assay (PAMPA). This PAMPA assay could provide better predictability and membrane permeability correlations compared to the data obtained for human absorption in the Caco-2 cell line. The Precoated PAMPA Plate System Gentest™ (Corning, Bradford, MA, USA) was used to perform the permeability assay for the 5 selected Se compounds. The protocol of the permeability assay was similar to the previously described ones and is detailed in the Supplementary Materials.
Five selenocompounds (EDA-58, EDA-71, EDA-119, EDA-122, and EDA-A6) were evaluated with the PAMPA in vitro assay using the CE technique.
[formula] Scheme 1 Calculation of the in vitro permeability (cm/s). A (filter area) cm^2 = 0.3; VD (donor well volume) mL = 0.3; VA (acceptor well volume) mL = 0.2; t (incubation time) seconds = 18,000; CA(t) (compound concentration in acceptor well at time t); CD(t) (compound concentration in donor well at time t). […]
1.3. PAMPA test: membrane permeability evaluation.
The passive transport and the membrane absorption of 5 selected selenocompounds (EDA-58, EDA-71, EDA-119, EDA-122, EDA-A6) were evaluated in the in vitro Parallel Artificial Membrane Permeability Assay (PAMPA). The protocol of the permeability assay was similar to the ones previously described.
1.3.1. Stock solutions and sample preparation for PAMPA test
Working solutions of the tested compounds at the concentration of the 50 μM in the phosphate saline buffer (PBS, pH 7.4) were prepared from the stocks in the pure dimethyl sulfoxide (DMSO) and stored at -20° C. Moreover, to draw the precise calibration curves for each tested (EDA-58, EDA-71, EDA-119, EDA-122, EDA-A6) and reference com- […]
The Precoated PAMPA Plate System Gentest™ (Corning, Bradford, MA, USA) was used to perform permeability assay for the 5 selected Se-compounds. The essential part of […]
solvents. PAMPA Plate System was brought to room temperature 30 min before use.
The 96-well filter plate precoated with lipids was used as a permeation acceptor, whereas the 96-well receiver plate acted as the permeation donor plate. Therefore, the compound solutions were added to the wells (300 μL/well) of the receiver plate and PBS was added to wells (200 μL/well) of the precoated filter plate.
Then, the filter plate was coupled with the receiver plate and both were incubated at room temperature for five hours without agitation. […] Fi-nally, the permeability coefficients (Pe, [cm/s]) of the tested compounds were estimated using the formula provided by the PAMPA Plate System manufacturer.
1.3.3. Capillary electrophoresis (CE) analytical method […]
were calculated in both the donor and acceptor compartments using the capillary electro-

[2] = test system: Salmonella Typhimurium TA100 strain; experiment: Reference experiment: impact on Salmonella Typhimurium growth (OD600); type: cell-based, Salmonella enterica serovar Typhimurium; conditions: 1 and 10 µM, 20 h, 37 °C
Procedure: Therefore, a reference experiment with 20 h of incubation at constant temperature conditions (37 °C) was performed in order to determine the effect of the tested compounds on the growth of the Salmonella Typhimurium used in the Ames test. […] Therefore, this method could be successfully applied to determine the safety profile of the tested derivatives.
it indicated the occurrence of cytotoxic events.
Salmonella Typhimurium growth
microplate assay. During the experiment, Salmonella Typhimurium TA100 strain was cul-
At the day of the experiment,
tions of 25 μM and 250 μM) respectively. The final compound and mutagenic agent con-
References in Supplementary (same numeration than in manuscript)
Appl Biochem Biotechnol, 2018, 184(1), 124-139.
Karczewska, E.; Kieć-Kononowicz, K.; Handzlik, J.; Jacob, C. Pronounced activity of aromatic selenocyanates against multidrug
Chem Biol Drug Res, 2017, 90(6), 1295-1306.
Drug Des Devel Ther, 2016,
icity of Environmental Samples. Environ Mol Mutagen, 2010, 51(1), 31-38.
stranded DNA is characterized by guanine to pyrimidine transversions. Nucleic Acids Res, 1992, 20(6), 1283-1287.

Structure (SMILES) | permeability compared with caffeine [1] | Papp at 5 h, 50 µM [1] | % Perm. (percentage that crossed from the donor well to the acceptor well) [1] | effect on the growth of Salmonella Typhimurium [2]
COC(=O)C[Se]C(=O)c1cc(OC)cc(OC)c1 [EDA-58, methyl 2-((3,5-dimethoxybenzoyl)selanyl)acetate] | lower permeability values than caffeine | 2.22 ×10⁻⁶ cm/s | 3.95% | –
CC(=O)C[Se]C(=O)c1ccc(Cl)cc1 [EDA-71, Se-(2-oxopropyl) 4-chlorobenzoselenoate] | higher permeability values than caffeine | 3.86 ×10⁻⁶ cm/s | 6.81% | –
C[Se]C(=O)c1ccc(C(=O)[Se]C)cc1 [EDA-109, Se,Se-dimethyl benzene-1,4-bis(carboselenoate)] | – | – | – | stimulating effect on the growth
C[Se]C(=O)c1cccc(C(=O)[Se]C)n1 [EDA-119, Se,Se-dimethyl pyridine-2,6-bis(carboselenoate)] | lower permeability values than caffeine | 3.27 ×10⁻⁶ cm/s | 5.79% | –
C[Se]C(=O)c1ccc(C(=O)[Se]C)s1 [EDA-122, Se,Se-dimethyl thiophene-2,5-bis(carboselenoate)] | higher permeability values than caffeine | 4.67 ×10⁻⁶ cm/s | 8.20% | –
O=C1[Se]C(=O)c2ccccc21 [EDA-A6, benzo[c]selenophene-1,3-dione] | higher permeability values than caffeine | 3.44 ×10⁻⁶ cm/s | 6.08% | –
